Source: ChEMBL document CHEMBL1201862, “PubChem BioAssay data set” (2004)
Calls of active or inactive are those of the source.

Tests used:
[1] = inhibitors of PGC1a acetylation in cells, dose response, cell-based, cherry-picked samples (AID 720514); format: functional;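 note: potency may reflect raised or lowered acetylation signal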
[2] = biological target: Kallikrein-7 (Homo sapiens, UniProt P49862); assay: Fluorescence Intensity-based biochemical primary high throughput dose response assay to identify activators of kallikrein-7 (K7) zymogen.
[3] = biological target: G-protein coupled receptor 183 (Homo sapiens, UniProt P32249); assay: SAR confirmation of small molecule antagonists of the EBI2 receptor via a luminescent beta-arrestin assa.; format: functional
[4] = Luminescence-based cell-based high throughput dose response assay to identify activators of the DAF-12 from the parasite S. stercoralis (ssDAF-12).; format: functional
[5] = biological target: T1, Oxysterols receptor LXR-beta (Homo sapiens, UniProt P55055); assay: LXR agonists, Gal4 luciferase reporter, dose response, counter-screen for ssDAF-12 agonist project, cell-based, luminescence, HEK293, S. stercoralis campaign (AID 720737); format: functional; settings: read-out: IC50 (the source's name)
T1 sequence (P55055 whole entry): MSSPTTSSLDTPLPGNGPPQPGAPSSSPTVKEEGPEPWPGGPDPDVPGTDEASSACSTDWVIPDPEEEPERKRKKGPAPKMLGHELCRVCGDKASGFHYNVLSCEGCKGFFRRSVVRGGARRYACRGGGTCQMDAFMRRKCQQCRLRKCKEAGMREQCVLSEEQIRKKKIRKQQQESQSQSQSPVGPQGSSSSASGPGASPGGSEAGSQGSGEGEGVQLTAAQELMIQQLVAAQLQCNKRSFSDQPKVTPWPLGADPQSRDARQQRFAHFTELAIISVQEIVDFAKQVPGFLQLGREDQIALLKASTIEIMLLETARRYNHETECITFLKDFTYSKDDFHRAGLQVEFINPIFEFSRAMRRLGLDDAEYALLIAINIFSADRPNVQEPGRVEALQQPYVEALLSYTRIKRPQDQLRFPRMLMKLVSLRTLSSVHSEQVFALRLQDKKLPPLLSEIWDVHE

[6] = biological target: Dual specificity tyrosine-phosphorylation-regulated kinase 1A (Rattus norvegicus, UniProt Q63470); format: biochemical, Homo sapiens
[7] = biological target: Caspase-6 (Homo sapiens, UniProt P55212); assay: human caspase-6 inhibitors, dose response, biochemical, VEID-R110 fluorescence, cherry-pick (AID 720632)
[8] = biological target: T2, Sentrin-specific protease 7 (Homo sapiens, UniProt Q9BQF6); format: functional;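 note: Luminescence-based dose-response confirmation of ultra-high-throughput screening hits, measuring inhibition of SENP7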
T2 sequence (Q9BQF6 whole entry): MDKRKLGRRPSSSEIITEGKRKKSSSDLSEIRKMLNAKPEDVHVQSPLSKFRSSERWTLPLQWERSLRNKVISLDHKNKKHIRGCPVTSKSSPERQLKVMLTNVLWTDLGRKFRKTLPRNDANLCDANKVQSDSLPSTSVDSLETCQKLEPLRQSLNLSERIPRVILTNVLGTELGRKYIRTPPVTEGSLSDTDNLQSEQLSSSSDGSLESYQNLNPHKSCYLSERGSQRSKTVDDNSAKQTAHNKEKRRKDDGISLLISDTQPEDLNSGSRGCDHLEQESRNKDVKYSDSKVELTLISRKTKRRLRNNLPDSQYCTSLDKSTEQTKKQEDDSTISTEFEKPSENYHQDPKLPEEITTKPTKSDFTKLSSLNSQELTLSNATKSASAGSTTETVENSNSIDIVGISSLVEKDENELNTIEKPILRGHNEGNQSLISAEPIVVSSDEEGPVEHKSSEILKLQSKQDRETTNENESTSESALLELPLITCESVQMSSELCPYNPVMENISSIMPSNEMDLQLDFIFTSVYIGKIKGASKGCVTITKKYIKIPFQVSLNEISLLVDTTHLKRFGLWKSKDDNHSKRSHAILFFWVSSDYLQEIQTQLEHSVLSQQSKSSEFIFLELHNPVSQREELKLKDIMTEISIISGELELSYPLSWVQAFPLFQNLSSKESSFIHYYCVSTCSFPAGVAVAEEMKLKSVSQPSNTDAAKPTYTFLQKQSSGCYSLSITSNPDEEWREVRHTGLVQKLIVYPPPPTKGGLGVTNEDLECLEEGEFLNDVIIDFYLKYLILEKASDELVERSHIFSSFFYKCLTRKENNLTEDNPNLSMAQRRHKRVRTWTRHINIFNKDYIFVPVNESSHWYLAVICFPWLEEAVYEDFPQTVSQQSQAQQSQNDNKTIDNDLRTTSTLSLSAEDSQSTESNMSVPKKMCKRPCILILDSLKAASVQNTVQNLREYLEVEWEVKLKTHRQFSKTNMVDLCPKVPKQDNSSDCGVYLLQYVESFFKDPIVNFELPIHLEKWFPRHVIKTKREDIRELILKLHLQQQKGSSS

[9] = biological target: T3, Caspase-3 (Homo sapiens, UniProt P42574); format: functional;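 note: Dose-response selectivity test against caspase-3 for candidate inhibitors of sentrin-specific proteases (SENPs)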
T3 sequence (P42574 whole entry): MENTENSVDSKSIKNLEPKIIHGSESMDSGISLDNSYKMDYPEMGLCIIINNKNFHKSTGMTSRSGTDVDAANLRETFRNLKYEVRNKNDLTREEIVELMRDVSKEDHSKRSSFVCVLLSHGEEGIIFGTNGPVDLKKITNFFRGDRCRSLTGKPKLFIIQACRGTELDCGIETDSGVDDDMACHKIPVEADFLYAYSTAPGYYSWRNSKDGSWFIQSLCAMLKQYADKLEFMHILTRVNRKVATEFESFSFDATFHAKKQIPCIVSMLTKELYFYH

[10] = biological target: T4, Sentrin-specific protease 6 (Homo sapiens, UniProt Q9GZR1); format: functional;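 note: Luminescence-based dose-response confirmatory assay of SENP6 inhibition, following up an ultra-high-throughput screen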
T4 sequence (Q9GZR1 whole entry): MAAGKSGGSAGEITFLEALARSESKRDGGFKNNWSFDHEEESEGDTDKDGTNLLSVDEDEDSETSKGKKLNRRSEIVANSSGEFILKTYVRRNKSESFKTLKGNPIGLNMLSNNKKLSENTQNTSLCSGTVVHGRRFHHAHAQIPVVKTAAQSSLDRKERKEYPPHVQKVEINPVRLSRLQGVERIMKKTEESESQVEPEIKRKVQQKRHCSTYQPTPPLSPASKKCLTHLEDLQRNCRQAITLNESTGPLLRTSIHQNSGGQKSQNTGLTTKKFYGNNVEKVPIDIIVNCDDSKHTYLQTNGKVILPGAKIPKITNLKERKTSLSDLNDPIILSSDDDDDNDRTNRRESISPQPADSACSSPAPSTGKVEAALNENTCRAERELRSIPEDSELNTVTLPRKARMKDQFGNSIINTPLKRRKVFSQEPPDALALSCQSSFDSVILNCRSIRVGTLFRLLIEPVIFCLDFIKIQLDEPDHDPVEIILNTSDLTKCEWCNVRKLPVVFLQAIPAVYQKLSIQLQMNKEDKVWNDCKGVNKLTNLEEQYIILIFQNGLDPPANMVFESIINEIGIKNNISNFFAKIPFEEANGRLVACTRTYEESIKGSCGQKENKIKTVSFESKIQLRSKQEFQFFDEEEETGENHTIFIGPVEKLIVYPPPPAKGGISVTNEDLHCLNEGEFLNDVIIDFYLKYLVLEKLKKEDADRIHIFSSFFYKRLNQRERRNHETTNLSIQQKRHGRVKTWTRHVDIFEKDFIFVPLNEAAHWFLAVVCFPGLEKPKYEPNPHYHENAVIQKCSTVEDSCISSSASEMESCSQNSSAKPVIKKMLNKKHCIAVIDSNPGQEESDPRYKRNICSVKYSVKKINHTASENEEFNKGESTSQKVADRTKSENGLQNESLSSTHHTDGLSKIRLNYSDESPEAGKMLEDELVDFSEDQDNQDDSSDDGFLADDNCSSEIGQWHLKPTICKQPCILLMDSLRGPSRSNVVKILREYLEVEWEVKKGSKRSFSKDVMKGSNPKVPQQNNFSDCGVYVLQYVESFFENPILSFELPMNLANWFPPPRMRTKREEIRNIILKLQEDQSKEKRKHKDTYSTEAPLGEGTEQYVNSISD

[11] = biological target: T5, Sentrin-specific protease 8 (Homo sapiens, UniProt Q96LD8); format: functional;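 note: luminescence read-out of SENP8 inhibition, dose-response confirmation following an ultra-high-throughput screen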
T5 sequence (Q96LD8 whole entry): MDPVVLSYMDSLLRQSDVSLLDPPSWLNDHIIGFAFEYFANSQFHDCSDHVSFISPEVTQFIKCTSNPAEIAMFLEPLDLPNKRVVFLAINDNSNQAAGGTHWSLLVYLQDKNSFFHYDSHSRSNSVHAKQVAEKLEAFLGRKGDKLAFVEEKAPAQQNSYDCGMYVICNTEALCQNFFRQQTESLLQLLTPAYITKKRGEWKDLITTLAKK

[12] = Orthopox viral replication plaque formation Measured in Cell-Based and Microorganism Combination System Using Imaging - 2142-05_Inhibitor_Dose_DryPowder_Activity.; format: functional
[13] = biological target: Vasopressin V2 receptor (Homo sapiens, UniProt P30518); assay: Late-stage results from the probe development effort to identify antagonists of arginine vasopressin receptor 1a (AVPR1a): fluorescence-based cell-based dose response AVPR2 inhibition counterscreen assay.; format: functional
[14] = Late-stage results from the probe development effort to identify antagonists of arginine vasopressin receptor 1a (AVPR1a): fluorescence-based cell-based dose response AVPR1a inhibition assay.; format: functional
[15] = Late-stage results from the probe development effort to identify antagonists of arginine vasopressin receptor 1a (AVPR1a): fluorescence-based cell-based dose response OXTR inhibition counterscreen assay.; format: functional
[16] = biological target: Vasopressin V1b receptor (Homo sapiens, UniProt P47901); assay: Late-stage results from the probe development effort to identify antagonists of arginine vasopressin receptor 1a (AVPR1a): fluorescence-based cell-based dose response AVPR1b inhibition counterscreen assay.; format: functional
[17] = system: HEK293; assay: NOD2 signaling inhibitors in MDP-stimulated cells, cell-based, uHTS, luminescence (AID 2001); format: functional; settings: Homo sapiens
[18] = biological target: T6, Nucleotide-binding oligomerization domain-containing protein 1 (Homo sapiens, UniProt Q9Y239); assay: NOD1 signaling inhibitors, SAR follow-up, revised (AID 2333); format: functional
T6 sequence (Q9Y239 whole entry): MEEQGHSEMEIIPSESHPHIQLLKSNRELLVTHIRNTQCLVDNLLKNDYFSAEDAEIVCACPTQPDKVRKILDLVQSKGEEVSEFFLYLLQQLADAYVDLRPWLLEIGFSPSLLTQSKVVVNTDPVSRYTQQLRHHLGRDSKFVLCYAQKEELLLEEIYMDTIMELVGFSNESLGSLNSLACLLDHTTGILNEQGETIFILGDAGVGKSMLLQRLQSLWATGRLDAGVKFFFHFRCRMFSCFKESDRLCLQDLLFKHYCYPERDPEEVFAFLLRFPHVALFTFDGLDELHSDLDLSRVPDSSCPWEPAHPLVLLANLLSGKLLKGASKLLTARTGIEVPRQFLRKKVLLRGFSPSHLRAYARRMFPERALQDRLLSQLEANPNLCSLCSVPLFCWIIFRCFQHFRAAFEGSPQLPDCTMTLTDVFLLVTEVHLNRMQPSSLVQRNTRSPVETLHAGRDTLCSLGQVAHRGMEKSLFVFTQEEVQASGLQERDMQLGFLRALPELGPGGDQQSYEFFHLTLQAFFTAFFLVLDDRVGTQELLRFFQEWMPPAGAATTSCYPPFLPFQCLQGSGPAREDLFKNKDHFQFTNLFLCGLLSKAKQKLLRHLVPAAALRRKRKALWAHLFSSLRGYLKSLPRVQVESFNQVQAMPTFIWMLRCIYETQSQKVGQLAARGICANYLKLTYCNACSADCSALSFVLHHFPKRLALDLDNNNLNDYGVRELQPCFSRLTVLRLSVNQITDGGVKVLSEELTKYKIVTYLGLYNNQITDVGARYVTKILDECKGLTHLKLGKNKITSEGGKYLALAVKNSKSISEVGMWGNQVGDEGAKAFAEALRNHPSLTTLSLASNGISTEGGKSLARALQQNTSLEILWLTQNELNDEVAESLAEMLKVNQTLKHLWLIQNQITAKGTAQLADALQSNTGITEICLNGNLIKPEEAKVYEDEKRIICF

[19] = biological target: Tumor necrosis factor (Homo sapiens, UniProt P01375); assay: TNFa-triggered NF-kB activation inhibitors, SAR follow-up, cell-based, revised (AID 2337); format: functional
[20] = system: HEK293; assay: NOD1 signaling inhibitors, primary screen, cell-based, luminescence, uHTS (AID 1578); format: functional; settings: Homo sapiens
[21] = system: HEK293; assay: cells; format: functional, cell-based; settings: Homo sapiens
[22] = system: HEK293; assay: cells; settings: Homo sapiens
[23] = biological target: ELAV-like protein 1 (Homo sapiens, UniProt Q15717); assay: Identify HuR specific inhibitors.; format: functional
[24] = system: HEK293; assay: cells; format: functional, cell-based; settings: Homo sapiens; remark: listed apart in the source

Vasopressin V1b receptor, sequence (P47901 whole entry): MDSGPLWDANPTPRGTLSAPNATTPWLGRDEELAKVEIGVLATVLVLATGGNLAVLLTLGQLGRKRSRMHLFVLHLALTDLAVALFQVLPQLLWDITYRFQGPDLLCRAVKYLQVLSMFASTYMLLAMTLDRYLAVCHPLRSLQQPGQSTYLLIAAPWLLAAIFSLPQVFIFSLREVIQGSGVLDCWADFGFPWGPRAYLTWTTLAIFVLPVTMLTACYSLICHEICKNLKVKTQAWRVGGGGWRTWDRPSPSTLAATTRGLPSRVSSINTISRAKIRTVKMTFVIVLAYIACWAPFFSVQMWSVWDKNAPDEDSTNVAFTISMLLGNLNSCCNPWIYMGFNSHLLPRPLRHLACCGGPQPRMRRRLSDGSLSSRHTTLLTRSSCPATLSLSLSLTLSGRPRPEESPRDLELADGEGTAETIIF
Tumor necrosis factor, sequence (P01375 whole entry): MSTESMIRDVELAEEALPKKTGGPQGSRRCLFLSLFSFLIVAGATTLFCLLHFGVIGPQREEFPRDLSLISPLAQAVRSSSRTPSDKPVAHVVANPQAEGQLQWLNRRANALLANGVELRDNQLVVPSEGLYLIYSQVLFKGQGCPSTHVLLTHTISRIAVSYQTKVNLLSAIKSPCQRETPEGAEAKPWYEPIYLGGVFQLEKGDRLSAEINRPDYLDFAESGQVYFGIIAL
Kallikrein-7, sequence (P49862 whole entry): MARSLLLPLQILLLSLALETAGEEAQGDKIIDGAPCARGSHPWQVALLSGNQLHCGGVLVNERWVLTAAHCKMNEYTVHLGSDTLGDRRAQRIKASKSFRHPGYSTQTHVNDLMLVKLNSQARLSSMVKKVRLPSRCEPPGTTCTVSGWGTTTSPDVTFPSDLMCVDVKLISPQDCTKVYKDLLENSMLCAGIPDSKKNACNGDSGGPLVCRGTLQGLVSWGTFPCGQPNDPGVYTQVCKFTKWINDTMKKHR
G-protein coupled receptor 183, sequence (P32249 whole entry): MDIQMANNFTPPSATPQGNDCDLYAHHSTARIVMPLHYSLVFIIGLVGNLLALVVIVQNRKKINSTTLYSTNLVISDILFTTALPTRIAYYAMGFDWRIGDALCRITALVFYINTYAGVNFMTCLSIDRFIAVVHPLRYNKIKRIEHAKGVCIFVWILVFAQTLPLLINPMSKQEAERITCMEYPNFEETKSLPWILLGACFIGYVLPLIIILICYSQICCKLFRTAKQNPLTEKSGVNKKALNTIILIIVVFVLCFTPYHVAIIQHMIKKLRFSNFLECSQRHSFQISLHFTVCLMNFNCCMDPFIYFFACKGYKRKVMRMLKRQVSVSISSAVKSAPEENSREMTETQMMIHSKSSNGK
Caspase-6, sequence (P55212 24-179 limits assumed): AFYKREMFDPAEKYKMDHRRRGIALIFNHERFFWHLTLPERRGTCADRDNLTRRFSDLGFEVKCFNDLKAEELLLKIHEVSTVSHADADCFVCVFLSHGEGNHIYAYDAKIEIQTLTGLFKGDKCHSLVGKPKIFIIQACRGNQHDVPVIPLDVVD
Caspase-6, sequence (P55212 194-293 limits assumed): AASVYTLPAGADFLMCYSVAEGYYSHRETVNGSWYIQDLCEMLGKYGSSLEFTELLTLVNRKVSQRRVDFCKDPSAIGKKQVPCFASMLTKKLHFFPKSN
ELAV-like protein 1, sequence (Q15717 whole entry): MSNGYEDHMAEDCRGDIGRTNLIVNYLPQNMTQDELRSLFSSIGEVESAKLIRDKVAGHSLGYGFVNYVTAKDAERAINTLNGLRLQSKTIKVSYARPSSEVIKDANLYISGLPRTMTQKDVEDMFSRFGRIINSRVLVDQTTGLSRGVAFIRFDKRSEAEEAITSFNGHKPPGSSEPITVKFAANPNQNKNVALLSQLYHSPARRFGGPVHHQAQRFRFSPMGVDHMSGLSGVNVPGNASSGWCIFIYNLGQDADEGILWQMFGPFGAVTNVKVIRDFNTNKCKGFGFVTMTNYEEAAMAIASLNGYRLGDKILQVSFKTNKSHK
Vasopressin V2 receptor, sequence (P30518 whole entry): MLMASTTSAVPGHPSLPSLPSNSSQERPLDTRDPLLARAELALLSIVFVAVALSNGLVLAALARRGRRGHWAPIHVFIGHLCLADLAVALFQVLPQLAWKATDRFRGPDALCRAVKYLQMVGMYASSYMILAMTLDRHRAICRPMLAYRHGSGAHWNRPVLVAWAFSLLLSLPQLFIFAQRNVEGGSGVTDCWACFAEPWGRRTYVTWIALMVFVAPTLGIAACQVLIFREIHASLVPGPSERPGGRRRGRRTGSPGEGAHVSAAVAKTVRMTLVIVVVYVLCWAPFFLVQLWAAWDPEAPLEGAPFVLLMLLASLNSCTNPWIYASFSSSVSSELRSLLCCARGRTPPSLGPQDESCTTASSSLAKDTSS

## N#Cc1c(N)c(C(=O)c2ccccc2)n2ccccc12
[1]
  AC50: 25.7 µM (active)

## COc1cc2c(cc1OC)C1CCN3C(=O)CCC3N1CC2 (centres undefined)
[2]
  EC50: 21.1 µM (inactive)

## O=C(/C=C/c1ccc(Br)cc1)N1CCN(C(=O)C2CCCC2)CC1
[3]
  IC50: 0.00441 µM (active)

## COc1ccc(C(=O)c2ccccc2)cc1
[4]
  IC50: > 67.6 µM (inactive)
[5]
  EC50: > 67.6 µM (inactive)

## COc1cc2c(C#N)c(N3CCCC3)nc(N)c2c(N)n1
[6]
  AC50: 5.72 µM (active)
[7]
  AC50: 12 µM (active)
[8]
  IC50: 2.67 µM (active)
[9]
  IC50: 7.35 µM (active)
[10]
  IC50: 2.24 µM (active)
[11]
  IC50: 2.64 µM (active)

## C[C@@H](O)C#Cc1ccc2c(c1)O[C@@H](CN(C)S(=O)(=O)c1ccc(-c3ccccc3)cc1)[C@@H](C)CN([C@@H](C)CO)S2(=O)=O
[12]
  AC50: 12.3 µM (active)

## COc1ccc(N(CC2CC2)C(=O)N2CCN(c3ccccc3C)CC2)cc1
[13]
  IC50: 3.51 µM (active)
[14]
  IC50: 0.0038 µM (active)
[15]
  IC50: 0.051 µM (active)
[16]
  IC50: 5.8 µM (active)

## O=C(Nc1cccc([N+](=O)[O-])c1)c1ccc2ccccc2c1O
[17]
  IC50: 6.08 µM (inactive)
[18]
  IC50: 4.36 µM (active)
[19]
  IC50: 4.72 µM (active)
[20]
  EC50: 3.05 µM (active)
[21]
  IC50: > 20 µM (inactive)
[22]
  IC50: 13.2 µM (active)
[23]
  IC50: 97.4 µM (inactive)
[24]
  IC50: 6.83 µM (active)
